{"source": "patent US20220016197A1", "about": "“ZINGIBER ZERUMBET EXTRACT FOR COMBATING DANDRUFF” (PIERRE FABRE DERMO-COSMETIQUE, priority 2018, published 2022)", "tested_on": "Malassezia furfur CBS1878", "assay": "Anti Malassezia activity: enumeration of residual microorganisms after contact with test product", "type": "cell-based", "conditions": "for Enumeration of residual microorganisms after contact: product in mixture A inoculated with 1% inoculum of M. furfur at 10^7 CFU/ml; for log reduction value: versus initial number of microorganisms", "description": "Indeed, M. furfur may proliferate anew if it is not completely or sufficiently removed. […] This component is generally measured by estimating the decay of microbial colonies over time.\nFive formulas are tested in this test: • A compound used as reference: zinc pyrithione at 1.0% w/w in a mixture A comprising: sodium laureth sulfate 14.3%, alkyl dimethyl betaine 10.0%, decyl glucoside 3.8%, sorbitan monolaurate 2.0%, citric acid monohydrate 10% solution, qs pH=5; water qs 100; • A Zingiber zerumbet rhizome extract obtained by heptanic extraction from the dry and ground rhizome, at 2.0% w/w in mixture A; • A Zingiber zerumbet rhizome extract obtained by ethanolic extraction, at 2.0% w/w in mixture A; • A Zingiber zerumbet rhizome extract obtained by supercritical CO2 in a water-soluble excipient (butylene glycol) at 3.0% w/w in mixture A. This is a commercial material called Legance®, sold by the firm Sederma. The INCI name of this material is: Butylene glycol-Zingiber Zerumbet Extract.\nAn inoculation of 20 g of test product is carried out with 1% inoculum of Malassezia furfur titrating at 10^7 CFU/ml. After a determined contact time, 1 g of product is taken and a 1/10 dilution is carried out in the neutralizing diluent. Successive dilutions at 1/10 up to 1/1000 dilution are carried out in the diluent. 1 ml is filtered on a 0.45 μm membrane in ester and cellulose acetate in the presence of 50 ml of sterile demineralized water (SDW), then two rinses are carried out with 50 ml of SDW.\nThe chosen contact times are 1 h, 2 h, 5 h and 8 hours. The neutralizing diluent is TSB+10% polysorbate 80, the diluent is tryptone-salt. The rinsing liquid is sterile demineralized water."}
{"substance": "zinc pyrithione [Compound 1]", "values": [{"measurement": "activity on Malassezia furfur (in words)", "value": "shows activity on Malassezia furfur from 1 hour of contact"}, {"measurement": "reduction in the number of microorganisms", "setting": "8 hours of contact", "value": "exceeds 3 log"}, {"measurement": "Enumeration of residual microorganisms after contact", "setting": "contact time 1 hour", "value": "7.2 × 10^4 CFU/g"}, {"measurement": "log reduction value", "setting": "contact time 1 hour", "value": 0.23}, {"measurement": "Enumeration of residual microorganisms after contact", "setting": "contact time 2 hours", "value": "4.8 × 10^4 CFU/g"}, {"measurement": "log reduction value", "setting": "contact time 2 hours", "value": 0.40}, {"measurement": "Enumeration of residual microorganisms after contact", "setting": "contact time 5 hours", "value": "4.9 × 10^3 CFU/g"}, {"measurement": "log reduction value", "setting": "contact time 5 hours", "value": 1.39}, {"measurement": "Enumeration of residual microorganisms after contact", "setting": "contact time 8 hours", "value": "<1.0 × 10^2 CFU/g"}, {"measurement": "log reduction value", "setting": "contact time 8 hours", "value": ">3.08"}]}
